# According to US4451485A, “Treatment of cardio-vascular diseases with 3-(2,2,2-trimethylhydrazinium) propionate dihydrate” (Institu Organicheskogo Sinteza Akademii Nauk Latviiskoi SSR, priority 1981, dated 1984):
# What was measured:
# [1] = in the organism; cited from earlier work
# [2] = Aconitine model of arrhythmia in white rats; type: in vivo; settings: for ED50: Rattus norvegicus, ip, read-out: ED50, aconitine arrhythmia in rats; for Antiarrhythmic index LD50/ED50, aconitine arrhythmia in rats: rat, in vivo
# Method: (§1) For the comparison of preparations, as the criterion of the range of therapeutic effect, there was used the ratio of the half-lethal dose to the half-effective dose (LD50 /ED50) which was referred to as the antiarrhythmic index. […] The comparative study of the antiarrhythmic activity of pharmaceutical preparations using an acotine model of arrhythmia was effected in experiments on white rats weighing 190-240 g. The test preparations were administered intraperitoneally 10-40 minutes before administration of aconitine.
# [3] = Strophanthin arrhythmia in guinea pigs (450 μg/kg); type: in vivo; settings: for ED50: Cavia porcellus, read-out: ED50, Strophanthin arrhythmia in guinea pigs
# Method: As the third model of arrhythmia, there was used strophanthin arrhythmia in guinea pigs. […] Against the background of arrhythmia the test preparations were administered intravenously.
# [4] = Threshold of electric fibrillation of auricles and ventricles in cats; type: in vivo; settings: for ED50: Felis catus, read-out: ED50, electric irritation of cat's heart; for Effect on fibrillation threshold relative to the composition of the invention: novocainamide 40-55 mg/kg, quinidine and lidocain lower doses
# Method: Furthermore, the preparation according to the present invention was tested for specific antiarrhythmic and antianginal effects. […] The effect of the novel pharmaceutical composition according to the present invention was studied on cats weighing 2.9-3.6 kg. The preparation was used as a 10% aqueous solution containing 3-(2,2,2-trimethylhydrazinium)propionate for the determination of the threshold value of electric fibrillation of auricles and ventricles. Under artificial respiration after opening of the thorax and pericardium, needle-like electrodes were applied to the right auricula and apex of the left ventricle. The irritation was effected by square pulses of 1 m.s., 15 st/s.
# as §1
# [5] = in vivo; parameters: species or system white mice; settings: mouse, in vivo; for LD50: white mice, intravenous (Table 2)
# [6] = Variation of arrhythmogenic and lethal doses of CaCl2 in mice; type: in vivo, white mice; settings: for Effect on arrhythmogenic and lethal doses of calcium chloride: single intraperitoneal administration
# Method: Thus, the effect of the preparation according to the present invention has been studied relative to the variation of arrhythmogenic and lethal doses of calcium chloride. An experiment was carried out on white mice of both sexes weighing 19-28 g which were narcotized by urethane and an ECG was remetered in transthoracic lead. A 2% solution of calcium chloride was administered to the test animals into the tail vein at a constant rate (0.1 ml for 15 seconds). The average dose of calcium chloride causing the appearance of arrhythmia and heart arrest was determined. In the test groups, the studied compounds were administered 45, 60, 120, 180 and 240 minutes before the beginning of administration of calcium chloride (Table 1).
# Variation of arrthythmogenic and lethal doses of CaCl2
# with time after administration of the studied
# pharmaceutical compositions in experiments on mice.
# [7] = Coronary circulation and hemodynamics in narcotized cats; type: in vivo
# Method: In acute experiments on narcotized cats with a mass of from 2.9 to 4.1 kg under artificial respiration, arterial pressure was recorded in the common carotide artery, central venous pressure in the right auricle, volume rate of blood flow in the ascending aortic arch and volume rate of the coronary blood flow. At the same time, there was recorded the content of oxyhemoglobin in venous coronary blood.
# [8] = 3 mg/kg intraperitoneal, 45 minutes
# [9] = 3 mg/kg intraperitoneal, 60 minutes
# [10] = 3 mg/kg intraperitoneal, 120 minutes
# [11] = 10 mg/kg intraperitoneal, 60 minutes
# [12] = 10 mg/kg intraperitoneal, 120 minutes
# [13] = 10 mg/kg intraperitoneal, 180 minutes
# [14] = 30 mg/kg intraperitoneal, 60 minutes
# [15] = 30 mg/kg intraperitoneal, 120 minutes
smiles,measurement,setting,value
C[N+](C)(C)CCCC(=O)[O-] [γ-butyrobetain],Metabolism into carnitine,[1],rapidly metabolized
C=C[C@H]1C[N@@]2CC[C@H]1C[C@@H]2[C@@H](O)c1ccnc2ccc(OC)cc12 [Quinidine],ED50,[2],4.3 ± 0.6 mg/kg
same,"Antiarrhythmic index LD50/ED50, aconitine arrhythmia in rats",[2],16
same,ED50,[3]; intravenous,2.3 ± 0.4 mg/kg
same,"Antiarrhythmic index LD50/ED50, Strophanthin arrhythmia in guinea pigs","[3]; guinea pig, in vivo",30
same,Duration for which Strophanthin-induced arrhythmia is cut short / ECG improved,[3]; intravenous,0.5 to 3 min
same,Number of animals (experiments) with effect on arrhythmia,[3]; intravenous,4 out of 8
same,ED50,[4]; intravenous,2.6 ± 0.5 mg/kg
same,"Antiarrhythmic index LD50/ED50, electric irritation of cat's heart",[4]; intravenous,26
same,Effect on fibrillation threshold relative to the composition of the invention,[4],exerting their effect at lower doses
same,Toxicity relative to the composition of the invention,[5],substantially higher toxicity
same,LD50,[5],68 mg/kg
same,Arrhythmogenic dose of CaCl2,[6]; [8],128.9 mg/kg
same,Lethal dose of CaCl2,[6]; [8],147.7 mg/kg
same,Arrhythmogenic dose of CaCl2,[6]; [9],104.5 mg/kg
same,Lethal dose of CaCl2,[6]; [9],117.8 mg/kg
same,Arrhythmogenic dose of CaCl2,[6]; [10],87.47 mg/kg
same,Lethal dose of CaCl2,[6]; [10],103.65 mg/kg
same,Arrhythmogenic dose of CaCl2,"[6]; 10 mg/kg intraperitoneal, 45 minutes before CaCl2, control 85",120.84 mg/kg
same,Lethal dose of CaCl2,"[6]; 10 mg/kg intraperitoneal, 45 minutes before CaCl2, control 100.9",138.54 mg/kg
same,Arrhythmogenic dose of CaCl2,[6]; [11],119.48 mg/kg
same,Lethal dose of CaCl2,[6]; [11],126.2 mg/kg
same,Arrhythmogenic dose of CaCl2,[6]; [12],94.5 mg/kg
same,Lethal dose of CaCl2,[6]; [12],117.6 mg/kg
same,Arrhythmogenic dose of CaCl2,[6]; [13],88.7 mg/kg
same,Lethal dose of CaCl2,[6]; [13],115.8 mg/kg
same,Effect on arrhythmogenic and lethal doses of calcium chloride,[6],more pronounced increase of the arrhythmogenic dose of calcium chloride
"CCOC(=O)COc1ccc2c(C)c(CCN(CC)CC)c(=O)oc2c1 [Carbocromene, reference compound]",Increase duration,[7]; 0.5 mg/kg,35 min
same,"Volume rate, percent of increase",[7]; 0.5 mg/kg,30%
same,Change of heart output,[7]; 2 mg/kg,+5 - 15%
same,Increase duration,[7]; 2 mg/kg,50 min
same,"Volume rate, percent of increase",[7]; 2 mg/kg,45%
same,Change of arterial pressure,[7]; 5 mg/kg,0 - +7%
same,Change of central venous pressure,[7]; 5 mg/kg,5 - 10%
same,Change of heart output,[7]; 5 mg/kg,+5 - 15%
same,Increase duration,[7]; 5 mg/kg,70 min
same,"Volume rate, percent of increase",[7]; 5 mg/kg,55%
same,Saturation of the venous blood of coronary sinus with oxygen,[7]; in vivo,lastingly increase saturation of the venous blood of coronary sinus with oxygen
CCN(CC)CCNC(=O)c1ccc(N)cc1 [Novocainamide],ED50,[2],45 ± 5 mg/kg
same,"Antiarrhythmic index LD50/ED50, aconitine arrhythmia in rats",[2],2.5
same,ED50,[3]; intravenous,55 ± 7.3 mg/kg
same,Duration for which Strophanthin-induced arrhythmia is cut short / ECG improved,[3]; intravenous,5 to 20 min
same,ED50,[4]; iv,46 ± 6.3 mg/kg
same,"Antiarrhythmic index LD50/ED50, electric irritation of cat's heart",[4]; intravenous,2
same,"Antiarrhythmic index LD50/ED50, electric irritation of cat's heart","[4]; intravenous, listed as novocainamide",2.3
same,Effect on fibrillation threshold relative to the composition of the invention,[4],the same effect
same,LD50,[5],112 mg/kg
same,Arrhythmogenic dose of CaCl2,[6]; [11],114.16 mg/kg
same,Lethal dose of CaCl2,[6]; [11],120.8 mg/kg
same,Arrhythmogenic dose of CaCl2,[6]; [12],86.85 mg/kg
same,Lethal dose of CaCl2,[6]; [12],104.5 mg/kg
same,Arrhythmogenic dose of CaCl2,[6]; [14],125.16 mg/kg
same,Lethal dose of CaCl2,[6]; [14],143 mg/kg
same,Arrhythmogenic dose of CaCl2,[6]; [15],93.16 mg/kg
same,Lethal dose of CaCl2,[6]; [15],114.9 mg/kg
same,Effect on arrhythmogenic and lethal doses of calcium chloride,[6],more pronounced increase of the arrhythmogenic dose of calcium chloride
CCN(CC)CC(=O)Nc1c(C)cccc1C [Lidocain],ED50,[3]; iv,3.8 ± 0.5 mg/kg
same,Duration for which Strophanthin-induced arrhythmia is cut short / ECG improved,[3]; intravenous,0.5 to 3 min
same,Number of animals (experiments) with effect on arrhythmia,[3]; intravenous,4 out of 7
